Test results as given in patent publication US11945822B2, “Pyrazolo-triazine and/or pyrazolo-pxrimidine derivatives as selective inhibitor of cyclin dependent kinase” (QURIENT CO., LTD., priority 2018, dated 2024).

target: T1, CDK5/p25 (Homo sapiens, UniProt Q00535); test: Enzymatic assay for CDK5 (FRET based LANCE Ultra kinase assay); format: biochemical; conditions: read-out: CDK5 enzymatic activity (IC50 range)
T1 construct: purchased Invitrogen PR8543B
Method in brief: (§1)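 Each CDK complex ([…]) phosphorylated 68 nM ULight-MBP peptide with ATP at Km for 60 min at 23° C., against 8 compound doses (4-fold dilutions). EDTA/Eu-anti-phospho-MBP detection, 60 min, then TR-FRET emission at 615 and 665 nm.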

T1 sequence (Q00535 whole entry): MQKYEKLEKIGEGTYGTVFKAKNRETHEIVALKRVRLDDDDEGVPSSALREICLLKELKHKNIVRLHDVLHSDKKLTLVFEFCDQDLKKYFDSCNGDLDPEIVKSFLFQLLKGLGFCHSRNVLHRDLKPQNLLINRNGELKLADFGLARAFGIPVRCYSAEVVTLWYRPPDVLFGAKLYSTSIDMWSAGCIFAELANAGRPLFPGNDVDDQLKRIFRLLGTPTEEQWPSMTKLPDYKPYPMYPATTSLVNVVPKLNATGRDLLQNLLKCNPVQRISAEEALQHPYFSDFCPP
T1 sequence (Q15078 99-307 partner limits assumed): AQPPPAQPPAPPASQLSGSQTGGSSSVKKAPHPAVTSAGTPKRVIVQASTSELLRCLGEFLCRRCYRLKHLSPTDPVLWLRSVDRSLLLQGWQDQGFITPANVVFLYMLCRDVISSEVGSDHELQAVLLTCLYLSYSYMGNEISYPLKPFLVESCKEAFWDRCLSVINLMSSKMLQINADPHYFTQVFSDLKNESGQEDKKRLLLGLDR

Row | IC50 [µM] | Compound
1 | > 1 | CC(C)c1cnn2c(NCc3ccccc3-c3cc4ccccc4[nH]3)nc(N3CCCC(N)C3)nc12 (racemic) [Compound 125]
2 | 0.1 to 1 | CC(C)c1cnn2c(NCc3ccccc3-c3ccc4c(c3)CC(=O)N4)nc(N3CCC(N)CC3)nc12 [Compound 17]
3 | 0.1 to 1 | CNC(=O)c1ccccc1CNc1nc(N2CCC(N)CC2)nc2c(C(C)C)cnn12 [Compound 19]
4 | 0.1 to 1 | CC(C)c1cnn2c(NCc3ccccc3NC(=O)c3cccc(NC(=O)CCCN(C)C)c3)nc(N3CCC(N)CC3)nc12 [Compound 89]

system: MV4-11; test: Cellular MV4-11 viability assay (CellTiter-Glo, 72 hours); format: cell-based; conditions: Homo sapiens
Method in brief: (§2)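 Steps: seed cells at per-line density; add compound, DMSO vehicle kept under 0.1% final; incubate 72 h, 37 °C, 5% CO2; lyse with CellTiter-Glo and read luminescence; run in duplicate.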

Row | IC50 [µM] | Compound
5 | < 1 | CC(C)c1cnn2c(NCc3ccccc3NC(=O)c3cccc(NC(=O)CCCN(C)C)c3)nc(N3CCC(N)CC3)nc12 [Compound 89]

system: RPMI-8226; test: Cellular RPMI-8226 viability assay (CellTiter-Glo, 72 hours); format: cell-based; conditions: Homo sapiens
Description: (§3) All cell lines were routinely tested for mycoplasma.
(§4) The effect of the CDK7 inhibitor to inhibit the growth of target cancer cells was evaluated through the 72 hours time period of viability assay. Briefly, the candidate cell line ware plated in 96 well plate at the following density of cells respectively. […] DMSO solvent without compound served as a control and final DMSO concentration less than 0.1%. After 72 hours of incubation at 37° C., 5% CO2 incubator, cells were analyzed for the viability using the CellTiter-Glo Luminescent Cell Viability Assay (Promega, Cat #G7570). All viability assays were performed in duplicate and Luminescence was read using an Envision (Perkin Elmer, USA). Data was analyzed using XLfit software.

Row | IC50 [µM] | Compound
6 | 1 to 10 | CC(C)c1cnn2c(NCc3ccccc3-c3cc4ccccc4[nH]3)nc(N3CCCC(N)C3)nc12 (racemic) [Compound 125]
7 | 1 to 10 | CC(C)c1cnn2c(NCc3ccccc3-c3ccc4c(c3)CC(=O)N4)nc(N3CCC(N)CC3)nc12 [Compound 17]
8 | < 1 | CNC(=O)c1ccccc1CNc1nc(N2CCC(N)CC2)nc2c(C(C)C)cnn12 [Compound 19]

system: H460; test: Cellular H460 viability assay (CellTiter-Glo, 72 hours); format: cell-based; conditions: Homo sapiens, NCI-H460
Method in brief: as §2

Row | IC50 [µM] | Compound
9 | 1 to 10 | CC(C)c1cnn2c(NCc3ccccc3-c3ccc4c(c3)CC(=O)N4)nc(N3CCC(N)CC3)nc12 [Compound 17]

system: MOLT-4; test: Cellular MOLT-4 viability assay (CellTiter-Glo, 72 hours); format: cell-based; conditions: Homo sapiens, MOLT4 viability assay
Description: as §3, §4

Row | IC50 [µM] | Compound
10 | 1 to 10 | CC(C)c1cnn2c(NCc3ccccc3NC(=O)c3cccc(NC(=O)CCCN(C)C)c3)nc(N3CCC(N)CC3)nc12 [Compound 89]

target: T2, CDK1/Cyclin B (Homo sapiens, UniProt P06493); test: Enzymatic assay for CDK1 (FRET based LANCE Ultra kinase assay); format: biochemical; conditions: read-out: CDK1 enzymatic activity (IC50 range)
T2 construct: purchased Invitrogen PR4768C
T2 sequence (P06493 whole entry): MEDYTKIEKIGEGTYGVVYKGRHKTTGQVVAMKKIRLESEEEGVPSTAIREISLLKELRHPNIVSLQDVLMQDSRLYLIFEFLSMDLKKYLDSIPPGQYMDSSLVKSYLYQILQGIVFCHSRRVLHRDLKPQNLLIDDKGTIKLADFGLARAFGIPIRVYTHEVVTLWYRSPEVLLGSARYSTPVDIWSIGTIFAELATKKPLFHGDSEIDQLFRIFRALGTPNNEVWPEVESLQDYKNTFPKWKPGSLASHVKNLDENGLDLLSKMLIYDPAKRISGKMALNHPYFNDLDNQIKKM
T2 sequence (P14635 whole entry partner): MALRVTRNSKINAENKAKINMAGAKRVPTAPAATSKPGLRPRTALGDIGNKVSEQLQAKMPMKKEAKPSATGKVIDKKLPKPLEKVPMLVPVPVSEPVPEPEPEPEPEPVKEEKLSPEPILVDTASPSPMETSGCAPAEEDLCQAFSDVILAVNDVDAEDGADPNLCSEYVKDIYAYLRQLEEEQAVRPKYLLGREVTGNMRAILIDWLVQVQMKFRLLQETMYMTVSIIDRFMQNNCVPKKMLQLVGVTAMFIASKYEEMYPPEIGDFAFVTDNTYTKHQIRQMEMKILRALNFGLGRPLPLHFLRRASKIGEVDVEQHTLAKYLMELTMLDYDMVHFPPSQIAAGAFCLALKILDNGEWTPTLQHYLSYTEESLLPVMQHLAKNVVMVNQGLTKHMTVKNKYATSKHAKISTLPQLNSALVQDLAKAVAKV
Method in brief: as §1

Row | IC50 [µM] | Compound
11 | > 1 | CC(C)c1cnn2c(NCc3ccccc3-c3cc4ccccc4[nH]3)nc(N3CCCC(N)C3)nc12 (racemic) [Compound 125]
12 | > 1 | CC(C)c1cnn2c(NCc3ccccc3-c3ccc4c(c3)CC(=O)N4)nc(N3CCC(N)CC3)nc12 [Compound 17]
13 | > 1 | CNC(=O)c1ccccc1CNc1nc(N2CCC(N)CC2)nc2c(C(C)C)cnn12 [Compound 19]
14 | > 1 | CC(C)c1cnn2c(NCc3ccccc3NC(=O)c3cccc(NC(=O)CCCN(C)C)c3)nc(N3CCC(N)CC3)nc12 [Compound 89]

system: HCT116; test: Cellular HCT116 viability assay (CellTiter-Glo, 72 hours); format: cell-based; conditions: Homo sapiens, HCT-116
Method in brief: as §2

Row | IC50 [µM] | Compound
15 | 1 to 10 | CC(C)c1cnn2c(NCc3ccccc3NC(=O)c3cccc(NC(=O)CCCN(C)C)c3)nc(N3CCC(N)CC3)nc12 [Compound 89]

target: T3, CDK7/Cyclin H/MNAT1 (Homo sapiens, UniProt P50613); test: Enzymatic assay for CDK7 (FRET based LANCE Ultra kinase assay); format: biochemical; conditions: CDK7 over CDK1
T3 construct: purchased Invitrogen PR6749B
T3 sequence (P50613 whole entry): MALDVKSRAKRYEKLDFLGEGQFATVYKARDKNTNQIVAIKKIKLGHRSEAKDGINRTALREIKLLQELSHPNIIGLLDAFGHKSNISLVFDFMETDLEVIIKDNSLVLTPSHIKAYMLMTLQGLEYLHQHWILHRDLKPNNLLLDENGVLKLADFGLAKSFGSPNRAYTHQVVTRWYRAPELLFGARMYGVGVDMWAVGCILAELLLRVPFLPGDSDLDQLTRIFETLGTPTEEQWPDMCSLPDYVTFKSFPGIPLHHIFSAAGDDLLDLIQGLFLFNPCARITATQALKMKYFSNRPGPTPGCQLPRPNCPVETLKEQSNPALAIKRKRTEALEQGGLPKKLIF
T3 sequence (P51946 whole entry partner): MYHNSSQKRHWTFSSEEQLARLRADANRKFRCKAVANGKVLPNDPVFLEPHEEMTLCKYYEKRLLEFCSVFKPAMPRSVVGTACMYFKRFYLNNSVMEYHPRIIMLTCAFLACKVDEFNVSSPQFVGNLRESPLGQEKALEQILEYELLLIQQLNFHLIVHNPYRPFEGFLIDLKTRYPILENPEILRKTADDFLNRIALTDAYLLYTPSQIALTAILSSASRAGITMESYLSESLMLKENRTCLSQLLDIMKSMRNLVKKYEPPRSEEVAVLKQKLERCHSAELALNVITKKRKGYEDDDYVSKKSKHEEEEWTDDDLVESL
T3 sequence (P51948 whole entry partner): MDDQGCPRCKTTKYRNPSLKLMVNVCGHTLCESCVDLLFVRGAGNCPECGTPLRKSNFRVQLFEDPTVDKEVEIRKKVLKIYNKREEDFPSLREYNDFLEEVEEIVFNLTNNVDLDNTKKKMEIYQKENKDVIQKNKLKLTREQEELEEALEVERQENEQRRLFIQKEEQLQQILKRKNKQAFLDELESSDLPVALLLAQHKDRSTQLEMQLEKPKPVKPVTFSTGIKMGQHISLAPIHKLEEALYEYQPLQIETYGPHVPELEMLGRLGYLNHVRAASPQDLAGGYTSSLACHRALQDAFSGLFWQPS
Method in brief: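 LANCE Ultra TR-FRET kinase assay using a ULight-labeled peptide substrate and a Eu-labeled anti-phospho antibody, with ATP at its Km. Purified CDK/cyclin complex was added to compound after brief centrifugation.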

Row | CDK1/CDK7: Selectivity of CDK7 inhibition over CDK1 inhibition | Compound
16 | A (A=greater than 200 fold) | CC(C)c1cnn2c(NCc3ccccc3-c3cc4ccccc4[nH]3)nc(N3CCCC(N)C3)nc12 (racemic) [Compound 125]
17 | A (A=greater than 200 fold) | CNC(=O)c1ccccc1CNc1nc(N2CCC(N)CC2)nc2c(C(C)C)cnn12 [Compound 19]
18 | A (A=greater than 200 fold) | CC(C)c1cnn2c(NCc3ccccc3NC(=O)c3cccc(NC(=O)CCCN(C)C)c3)nc(N3CCC(N)CC3)nc12 [Compound 89]

Row | Compound | CDK1/CDK7: Selectivity of CDK7 inhibition over CDK1 inhibition
19 | CC(C)c1cnn2c(NCc3ccccc3-c3ccc4c(c3)CC(=O)N4)nc(N3CCC(N)CC3)nc12 [Compound 17] | B (B=less than 200 fold, but greater than 20 fold)

same assay, conditions: CDK7 over CDK2

Row | Compound | CDK2/CDK7: Selectivity of CDK7 inhibition over CDK2 inhibition
20 | CC(C)c1cnn2c(NCc3ccccc3-c3cc4ccccc4[nH]3)nc(N3CCCC(N)C3)nc12 (racemic) [Compound 125] | B (B=less than 200 fold, but greater than 20 fold)
21 | CC(C)c1cnn2c(NCc3ccccc3-c3ccc4c(c3)CC(=O)N4)nc(N3CCC(N)CC3)nc12 [Compound 17] | B (B=less than 200 fold, but greater than 20 fold)
22 | CNC(=O)c1ccccc1CNc1nc(N2CCC(N)CC2)nc2c(C(C)C)cnn12 [Compound 19] | B (B=less than 200 fold, but greater than 20 fold)
23 | CC(C)c1cnn2c(NCc3ccccc3NC(=O)c3cccc(NC(=O)CCCN(C)C)c3)nc(N3CCC(N)CC3)nc12 [Compound 89] | A (A=greater than 200 fold)

same assay, conditions: CDK7 over CDK5

Row | Compound | CDK5/CDK7: Selectivity of CDK7 inhibition over CDK5 inhibition
24 | CC(C)c1cnn2c(NCc3ccccc3-c3cc4ccccc4[nH]3)nc(N3CCCC(N)C3)nc12 (racemic) [Compound 125] | B (B=less than 200 fold, but greater than 20 fold)
25 | CC(C)c1cnn2c(NCc3ccccc3-c3ccc4c(c3)CC(=O)N4)nc(N3CCC(N)CC3)nc12 [Compound 17] | C (C=less than 20 fold)
26 | CNC(=O)c1ccccc1CNc1nc(N2CCC(N)CC2)nc2c(C(C)C)cnn12 [Compound 19] | B (B=less than 200 fold, but greater than 20 fold)
27 | CC(C)c1cnn2c(NCc3ccccc3NC(=O)c3cccc(NC(=O)CCCN(C)C)c3)nc(N3CCC(N)CC3)nc12 [Compound 89] | B (B=less than 200 fold, but greater than 20 fold)

same assay, conditions: read-out: CDK7 enzymatic activity (IC50 range)

Row | IC50 [µM] | Compound
28 | < 0.1 | CC(C)c1cnn2c(NCc3ccccc3-c3cc4ccccc4[nH]3)nc(N3CCCC(N)C3)nc12 (racemic) [Compound 125]
29 | < 0.1 | CC(C)c1cnn2c(NCc3ccccc3-c3ccc4c(c3)CC(=O)N4)nc(N3CCC(N)CC3)nc12 [Compound 17]
30 | < 0.1 | CNC(=O)c1ccccc1CNc1nc(N2CCC(N)CC2)nc2c(C(C)C)cnn12 [Compound 19]
31 | < 0.1 | CC(C)c1cnn2c(NCc3ccccc3NC(=O)c3cccc(NC(=O)CCCN(C)C)c3)nc(N3CCC(N)CC3)nc12 [Compound 89]

target: T4, CDK2/Cyclin A (Homo sapiens, UniProt P24941); test: Enzymatic assay for CDK2 (FRET based LANCE Ultra kinase assay); format: biochemical; conditions: read-out: CDK2 enzymatic activity (IC50 range)
T4 construct: purchased Invitrogen PV6290
Method in brief: as §1

Row | IC50 [µM] | Compound
32 | > 1 | CC(C)c1cnn2c(NCc3ccccc3-c3cc4ccccc4[nH]3)nc(N3CCCC(N)C3)nc12 (racemic) [Compound 125]
33 | 0.1 to 1 | CC(C)c1cnn2c(NCc3ccccc3-c3ccc4c(c3)CC(=O)N4)nc(N3CCC(N)CC3)nc12 [Compound 17]
34 | 0.1 to 1 | CNC(=O)c1ccccc1CNc1nc(N2CCC(N)CC2)nc2c(C(C)C)cnn12 [Compound 19]
35 | > 1 | CC(C)c1cnn2c(NCc3ccccc3NC(=O)c3cccc(NC(=O)CCCN(C)C)c3)nc(N3CCC(N)CC3)nc12 [Compound 89]
